{"source": "ChEMBL document CHEMBL3832040", "about": "“DailyMed|setid=dbe8d4f6-c338-4076-9ae9-2e86c0767226 | TRIAMTERENE AND HYDROCHLOROTHIAZIDE- triamterene and hydrochlorothiazide tablet|Aidarex Pharmaceuticals LLC”", "experiment": "Evaluation of the Tmax of Hydrochlorothiazide following oral administration of hydrochlorothiazide", "assay_type": "ADME, organism-based", "conditions": "human, in vivo, dosed compound id 30, dosed compound name HYDROCHLOROTHIAZIDE, tissue Plasma", "data": [{"smiles": "NS(=O)(=O)c1cc2c(cc1Cl)NCNS2(=O)=O", "note": "[HYDROCHLOROTHIAZIDE]", "values": [{"measurement": "Tmax", "value": 2, "unit": "h"}]}]}
